Values quoted from earlier work as cited in patent US11998629B2, “Method for dyeing keratinous material, comprising the use of an organosilicon compound, an effect pigment and a film-forming polymer” (Henkel AG & Co. KGaA, priority 2019, dated 2024).

Conditions: 25° C.

| Molecule | solubility in water | also measured |
| --- | --- | --- |
| CCN(Cc1cccc(S(=O)(=O)[O-])c1)c1ccc(C(=C2C=CC(=[N+](CC)Cc3cccc(S(=O)(=O)[O-])c3)C=C2)c2ccccc2S(=O)(=O)[O-])cc1.[Na+].[Na+] [Acid Blue 9] |  | water solubility: greater than 20 % by weight |
| O=S(=O)([O-])c1ccc(N=Nc2c(O)ccc3ccccc23)cc1.[Na+] [Acid Orange 7, sodium salt of 4-[(2-hydroxy-1-naphthyl)azo]benzenesulfonate] | more than 7 g/L |  |
| Nc1cc(S(=O)(=O)[O-])cc2cc(S(=O)(=O)[O-])c(N=Nc3ccccc3)c(O)c12.[Na+].[Na+] [Acid Red 33, disodium salt of 5-amino-4-hydroxy-3-(phenylazo)-naphthalene-2,7-disulphonate] | 2.5 mg/mL |  |
| O=C([O-])c1c(Cl)c(Cl)c(Cl)c(Cl)c1-c1c2c(Br)cc(=O)c(Br)c-2oc2c(Br)c(O)cc(Br)c12.O=C([O-])c1c(Cl)c(Cl)c(Cl)c(Cl)c1-c1c2c(Br)cc(=O)c(Br)c-2oc2c(Br)c(O)cc(Br)c12.[Na+].[Na+] [Acid Red 92, disodium salt of 3,4,5,6-tetrachloro-2-(1,4,5,8-tetrabromo-6-hydroxy-3-oxoxanthen-9-yl)benzoic acid] | greater than 10 g/L |  |
| O=C([O-])C1=NN(c2ccc(S(=O)(=O)[O-])cc2)C(=O)C1N=Nc1ccc(S(=O)(=O)[O-])cc1.[Na+].[Na+].[Na+] (stereo not drawn) [Acid Yellow 23, trisodium salt of 4,5-dihydro-5-oxo-1-(4-sulfophenyl)-4-((4-sulfophenyl)azo)-1H-pyrazole-3-carboxylic acid] |  | solubility in water (in words): readily soluble |
| mixture of the sodium salts of mono- and disulfonic acids of 2-(2-quinolyl)-1H-indene-1,3(2H)-dione [Acid Yellow 3] | 20 mg/mL |  |
